Reference: paper PMC6906348 (Therapeutic Advances in Medical Oncology, 2019)

System: patients with advanced HCC
Assay: Safety: adverse events
Format: in vivo, human
Settings: for Abdominal pain (AE regardless of study drug relationship) / Acute kidney injury (AE regardless of study drug relationship) / Anemia (AE regardless of study drug relationship) / Ascites (AE regardless of study drug relationship) / Blood bilirubin increased (AE regardless of study drug relationship) / Blood creatinine increased (AE regardless of study drug relationship) / Constipation (AE regardless of study drug relationship) / Decreased appetite (AE regardless of study drug relationship) / Diarrhea (AE regardless of study drug relationship) / Fatigue (AE regardless of study drug relationship) / Hyperbilirubinemia (AE regardless of study drug relationship) / Hypoalbuminemia (AE regardless of study drug relationship) / Insomnia (AE regardless of study drug relationship) / Leukopenia (AE regardless of study drug relationship) / Nausea (AE regardless of study drug relationship) / Number of patients with at least one event (AE regardless of study drug relationship) / Peripheral edema (AE regardless of study drug relationship) / Platelet count decreased (AE regardless of study drug relationship) / Pyrexia (AE regardless of study drug relationship) / Vomiting (AE regardless of study drug relationship) / Weight decreased (AE regardless of study drug relationship) / ALT increased (AE regardless of study drug relationship) / AST increased (AE regardless of study drug relationship): patients n (%)
[1] = 600 mg capsule BID n = 27, All grades
[2] = 600 mg capsule BID n = 27, Grades 3/4
[3] = All patients n = 38, All grades
[4] = All patients n = 38, Grades 3/4
[5] = all patients (n = 38), all grades

CNC(=O)c1ccc(-c2cnc3ncc(Cc4ccc5ncccc5c4)n3n2)cc1F [capmatinib]
Abdominal pain (AE regardless of study drug relationship) [1]: 3 (11) | Acute kidney injury (AE regardless of study drug relationship) [1]: 2 (7) | Anemia (AE regardless of study drug relationship) [1]: 5 (19) | Ascites (AE regardless of study drug relationship) [1]: 4 (15) | Blood bilirubin increased (AE regardless of study drug relationship) [1]: 7 (26) | Blood creatinine increased (AE regardless of study drug relationship) [1]: 7 (26) | Constipation (AE regardless of study drug relationship) [1]: 6 (22) | Decreased appetite (AE regardless of study drug relationship) [1]: 9 (33) | Diarrhea (AE regardless of study drug relationship) [1]: 8 (30) | Fatigue (AE regardless of study drug relationship) [1]: 6 (22) | Hyperbilirubinemia (AE regardless of study drug relationship) [1]: 4 (15) | Hypoalbuminemia (AE regardless of study drug relationship) [1]: 6 (22) | Insomnia (AE regardless of study drug relationship) [1]: 5 (19) | Leukopenia (AE regardless of study drug relationship) [1]: 4 (15) | Nausea (AE regardless of study drug relationship) [1]: 9 (33) | Number of patients with at least one event (AE regardless of study drug relationship) [1]: 27 (100) | Peripheral edema (AE regardless of study drug relationship) [1]: 4 (15) | Platelet count decreased (AE regardless of study drug relationship) [1]: 4 (15) | Pyrexia (AE regardless of study drug relationship) [1]: 5 (19) | Vomiting (AE regardless of study drug relationship) [1]: 9 (33) | Weight decreased (AE regardless of study drug relationship) [1]: 2 (7) | ALT increased (AE regardless of study drug relationship) [2]: 1 (4) | AST increased (AE regardless of study drug relationship) [2]: 8 (30) | Abdominal pain (AE regardless of study drug relationship) [2]: 1 (4) | Acute kidney injury (AE regardless of study drug relationship) [2]: 1 (4) | Anemia (AE regardless of study drug relationship) [2]: 1 (4) | Ascites (AE regardless of study drug relationship) [2]: 1 (4) | Blood bilirubin increased (AE regardless of study drug relationship) [2]: 5 (19) | Blood creatinine increased (AE regardless of study drug relationship) [2]: 1 (4) | Constipation (AE regardless of study drug relationship) [2]: 0 | Decreased appetite (AE regardless of study drug relationship) [2]: 1 (4) | Diarrhea (AE regardless of study drug relationship) [2]: 0 | Fatigue (AE regardless of study drug relationship) [2]: 0 | Hyperbilirubinemia (AE regardless of study drug relationship) [2]: 3 (11) | Hypoalbuminemia (AE regardless of study drug relationship) [2]: 0 | Insomnia (AE regardless of study drug relationship) [2]: 0 | Leukopenia (AE regardless of study drug relationship) [2]: 0 | Nausea (AE regardless of study drug relationship) [2]: 1 (4) | Number of patients with at least one event (AE regardless of study drug relationship) [2]: 19 (70) | Peripheral edema (AE regardless of study drug relationship) [2]: 0 | Platelet count decreased (AE regardless of study drug relationship) [2]: 0 | Pyrexia (AE regardless of study drug relationship) [2]: 0 | Vomiting (AE regardless of study drug relationship) [2]: 1 (4) | Weight decreased (AE regardless of study drug relationship) [2]: 0 | patients with at least 1 dose reduction due to AEs (7/38 patients): 18% | ALT increased (AE regardless of study drug relationship) [3]: 7 (18) | AST increased (AE regardless of study drug relationship) [3]: 12 (32) | Abdominal pain (AE regardless of study drug relationship) [3]: 5 (13) | Acute kidney injury (AE regardless of study drug relationship) [3]: 4 (11) | Anemia (AE regardless of study drug relationship) [3]: 8 (21) | Ascites (AE regardless of study drug relationship) [3]: 5 (13) | Blood bilirubin increased (AE regardless of study drug relationship) [3]: 9 (24) | Blood creatinine increased (AE regardless of study drug relationship) [3]: 10 (26) | Constipation (AE regardless of study drug relationship) [3]: 9 (24) | Decreased appetite (AE regardless of study drug relationship) [3]: 12 (32) | Diarrhea (AE regardless of study drug relationship) [3]: 13 (34) | Fatigue (AE regardless of study drug relationship) [3]: 10 (26) | Hyperbilirubinemia (AE regardless of study drug relationship) [3]: 4 (11) | Hypoalbuminemia (AE regardless of study drug relationship) [3]: 8 (21) | Insomnia (AE regardless of study drug relationship) [3]: 7 (18) | Leukopenia (AE regardless of study drug relationship) [3]: 4 (11) | Nausea (AE regardless of study drug relationship) [3]: 16 (42) | Number of patients with at least one event (AE regardless of study drug relationship) [3]: 38 (100) | Peripheral edema (AE regardless of study drug relationship) [3]: 6 (16) | Platelet count decreased (AE regardless of study drug relationship) [3]: 4 (11) | Pyrexia (AE regardless of study drug relationship) [3]: 6 (16) | Vomiting (AE regardless of study drug relationship) [3]: 14 (37) | Weight decreased (AE regardless of study drug relationship) [3]: 4 (11) | ALT increased (AE regardless of study drug relationship) [4]: 2 (5) | AST increased (AE regardless of study drug relationship) [4]: 9 (24) | Abdominal pain (AE regardless of study drug relationship) [4]: 1 (3) | Acute kidney injury (AE regardless of study drug relationship) [4]: 2 (5) | Anemia (AE regardless of study drug relationship) [4]: 3 (8) | Ascites (AE regardless of study drug relationship) [4]: 1 (3) | Blood bilirubin increased (AE regardless of study drug relationship) [4]: 6 (16) | Blood creatinine increased (AE regardless of study drug relationship) [4]: 1 (3) | Constipation (AE regardless of study drug relationship) [4]: 0 | Decreased appetite (AE regardless of study drug relationship) [4]: 1 (3) | Diarrhea (AE regardless of study drug relationship) [4]: 1 (3) | Fatigue (AE regardless of study drug relationship) [4]: 0 | Hyperbilirubinemia (AE regardless of study drug relationship) [4]: 3 (8) | Hypoalbuminemia (AE regardless of study drug relationship) [4]: 1 (3) | Insomnia (AE regardless of study drug relationship) [4]: 0 | Leukopenia (AE regardless of study drug relationship) [4]: 0 | Nausea (AE regardless of study drug relationship) [4]: 1 (3) | Number of patients with at least one event (AE regardless of study drug relationship) [4]: 25 (66) | Peripheral edema (AE regardless of study drug relationship) [4]: 0 | Platelet count decreased (AE regardless of study drug relationship) [4]: 0 | Pyrexia (AE regardless of study drug relationship) [4]: 0 | Vomiting (AE regardless of study drug relationship) [4]: 2 (5) | Weight decreased (AE regardless of study drug relationship) [4]: 0 | diarrhea, AE regardless of causality [5]: 34% | nausea, AE regardless of causality [5]: 42% | vomiting, AE regardless of causality [5]: 37% | patients with AEs that led to discontinuation of capmatinib (all patients (n = 38), nine patients): 24% | tolerability (single agent, 600 mg BID capsules and 400 mg BID tablets): tolerable with a manageable safety profile
